In brackets after ≈: the same amount, converted by molar mass. One block for each compound: values may come before it.
Assays:
Rattus norvegicus [1] = assay: Gastric ulcerogenic activity in ethanol-induced rat model assessed as reduction in gastric lesion at 10 mg/kg, po relative to control; type: functional; set-up: scale not given: the % may be the effect or the level left
Rattus norvegicus [2] = assay: Gastric ulcerogenic activity in ethanol-induced rat model assessed as reduction in gastric lesion at 5 mg/kg, po relative to control; type: functional; set-up: scale not given: the % may be the effect or the level left
Rattus norvegicus [3] = assay: Gastric ulcerogenic activity in ethanol-induced rat model assessed as reduction in mucosal damage at 50 mg/kg, po relative to control; type: functional; set-up: scale not given: the % may be the effect or the level left
Mus musculus = assay: Anti-ulcerogenic activity in ethanol-induced gastric ulcer mouse model assessed as reduction in ulcer formation at 350 mg/kg; type: functional; set-up: scale not given: the % may be the effect or the level left
[4] = target: T1, Gastrin/cholecystokinin type B receptor (Homo sapiens, UniProt P32239); assay: Antagonist activity at human CCKBR; type: functional
T1 sequence (P32239 whole entry): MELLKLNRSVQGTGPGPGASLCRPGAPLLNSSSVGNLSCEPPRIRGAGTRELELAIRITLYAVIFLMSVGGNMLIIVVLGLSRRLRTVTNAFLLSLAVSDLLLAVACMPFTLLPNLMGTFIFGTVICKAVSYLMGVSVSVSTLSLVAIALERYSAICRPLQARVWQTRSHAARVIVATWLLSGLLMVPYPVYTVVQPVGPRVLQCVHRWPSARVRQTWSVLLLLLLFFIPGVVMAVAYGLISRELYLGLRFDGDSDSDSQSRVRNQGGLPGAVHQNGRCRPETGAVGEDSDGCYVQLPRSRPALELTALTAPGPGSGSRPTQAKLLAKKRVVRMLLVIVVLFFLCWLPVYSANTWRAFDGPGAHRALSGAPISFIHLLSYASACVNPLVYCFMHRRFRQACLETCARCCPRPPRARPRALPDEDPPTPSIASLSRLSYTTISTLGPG

Rattus norvegicus [5] = assay: Protection against stress-induced Wistar rat model assessed as inhibition of gastric lesion at 500 ug/kg, po measured after 6 hrs relative to control; type: functional; set-up: scale not given: the % may be the effect or the level left
[6] = Inhibition of Hydrogen potassium ATPase (unknown origin); set-up: species or system Homo sapiens
[7] = target: T2, Polyunsaturated fatty acid lipoxygenase ALOX15 (Homo sapiens, UniProt P16050); assay: Inhibition of 15-LOX (unknown origin)
T2 sequence (P16050 whole entry): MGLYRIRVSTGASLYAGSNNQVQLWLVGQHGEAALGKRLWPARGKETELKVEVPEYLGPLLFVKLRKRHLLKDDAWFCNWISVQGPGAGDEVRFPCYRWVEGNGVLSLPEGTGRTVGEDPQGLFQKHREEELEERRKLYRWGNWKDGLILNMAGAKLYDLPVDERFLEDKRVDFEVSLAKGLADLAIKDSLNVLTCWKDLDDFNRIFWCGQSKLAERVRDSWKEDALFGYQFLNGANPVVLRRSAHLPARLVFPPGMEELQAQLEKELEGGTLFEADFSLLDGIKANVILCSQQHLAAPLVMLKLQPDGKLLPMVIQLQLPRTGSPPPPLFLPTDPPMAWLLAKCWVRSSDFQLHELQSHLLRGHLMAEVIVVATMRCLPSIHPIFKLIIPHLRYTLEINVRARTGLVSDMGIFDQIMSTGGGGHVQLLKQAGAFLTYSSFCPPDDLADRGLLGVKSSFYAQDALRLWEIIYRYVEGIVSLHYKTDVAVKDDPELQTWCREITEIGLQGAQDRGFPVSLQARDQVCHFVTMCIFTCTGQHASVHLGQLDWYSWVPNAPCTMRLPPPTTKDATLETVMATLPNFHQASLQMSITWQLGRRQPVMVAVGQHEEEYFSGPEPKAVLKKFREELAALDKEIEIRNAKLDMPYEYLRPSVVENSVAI

[8] = Acute toxicity in po dosed mouse assessed as lethal dose; type: organism-based; conditions: in vivo
Helicobacter pylori [9] = assay: Antibacterial activity against Helicobacter pylori ATCC 43504 assessed as reduction in bacterial growth incubated for 24 hrs by broth micro-dilution method; type: functional
Helicobacter pylori [10] = assay: Antibacterial activity against Helicobacter pylori NCTC 11637 assessed as reduction in bacterial growth incubated for 24 hrs by broth micro-dilution method; type: functional

Structure (SMILES): CCc1c(O)c(O)c2c(c1O)C(=O)C(O)=C(O)C2=O
- Activity (Rattus norvegicus [1]): 75.5%
- Activity (Rattus norvegicus [2]): 73.51%

Structure (SMILES): O=C(CSc1nc2ccccc2[nH]1)n1nc(Nc2ccc(O)cc2)cc1-c1ccccc1
- Activity (Rattus norvegicus [5]): 83.1%

Structure (SMILES): COc1cc(/C=N/NC(=O)Cc2ccccc2Nc2c(Cl)cccc2Cl)cc(OC)c1O
- LD50 [8]: 168 mg/kg

Structure (SMILES): C=CCS[S+]([O-])CC=C (stereo unspecified) [ALLICIN]
- MIC (Helicobacter pylori [9]): 6 µg/mL (≈ 37 µM)
- MIC (Helicobacter pylori [10]): 4 µg/mL (≈ 24.6 µM)

Further lines, with some results ahead:

- IC50 [4]: 31.9 µM
Structure (SMILES): CCCc1ccc([C@H]2N[C@@H](C(=O)OC)Cc3c2[nH]c2ccccc32)cc1
- Activity (Rattus norvegicus [3]): 81.2%
- Activity (Mus musculus): 81.2%

- IC50 [6]: 42.41 µg/mL (≈ 151 µM)
- IC50 [7]: 8.15 µM
Structure (SMILES): Clc1ccc(-c2cc(-c3ccco3)no2)c(Cl)c1
